Patent publication US11732560B1, “Nitrate treatment for injectivity improvement” (SAUDI ARABIAN OIL COMPANY, priority 2022, dated 2023)
Where two headings read alike, the source gives them in different places.

What was measured:
[1] = tested on: Nitrate Utilizing Bacterial (NUB); experiment: Field trial microbiological monitoring: planktonic NUB population; format: cell-based, nitrate utilizing bacteria
Protocol: (§1) A field experiment was conducted in an oil field water injection system to determine the effect of nitrate (NO3^-) for controlling sulfate reducing bacteria (SRB) in oilfield operations, and microbial influence corrosion (MIC) for surface pipelines.

[2] = tested on: sulfate reducing bacteria (SRB)
Protocol: The second injection rate, 23 mg/l, was maintained for three weeks.

[3] = tested on: sulfide production
Protocol: as §1

[4] = tested on: NRSOB
Protocol: as §1

SMILES: O=[N+]([O-])O [nitrate]
- NUB population ([1]; initially detected, start of nitrate treatment): 104 NUB/ml
- planktonic NUB population ([1]; nitrate reduced to 23 mg/L and 11 mg/L, over 7 days and after 56 days): 106 mL⁻¹
- NUB population ([1]; over nitrate treatment with 45 mg/L): ~10^6 NUB/ml
- SRB activities ([2]; increase observed later after 23 mg/l period, maintained): 101 SRB/ml
- minimum SRB achieved ([2]; nitrate 11 mg/l): 10^1 bacteria/ml
- SRB activities ([2]; nitrate 23 mg/l, at the end of three weeks): below the detection limits
- drop in SRB activities ([2]; nitrate 45 mg/l, 10^2 SRB/ml before injection): 50%
- sulfide level ([3]; nitrate 11 mg/L): 6.7 mg/L
- sulfide level ([3]; nitrate 23 mg/l): 8 mg/L
- sulfide concentration ([3]; nitrate ion 45 mg/L, 15.8-17.3 ppm detected beforehand): 8.3 ppm
- NRSOB numbers ([4]; nitrate dose reduced, decreased from 10^6): 10^4 per ml
- NRSOB numbers ([4]; over treatment with nitrate at 45 mg/L, increased from 10^3): 10^6 /ml
